{"source": "paper PMC3625961", "about": "(Synapse (New York, N.Y.), 2011)", "key": {"[1]": {"biological_target": "T1, CRF1 receptor (Macaca mulatta, UniProt Q76LL8)", "T1 sequence (Q76LL8 24-415)": "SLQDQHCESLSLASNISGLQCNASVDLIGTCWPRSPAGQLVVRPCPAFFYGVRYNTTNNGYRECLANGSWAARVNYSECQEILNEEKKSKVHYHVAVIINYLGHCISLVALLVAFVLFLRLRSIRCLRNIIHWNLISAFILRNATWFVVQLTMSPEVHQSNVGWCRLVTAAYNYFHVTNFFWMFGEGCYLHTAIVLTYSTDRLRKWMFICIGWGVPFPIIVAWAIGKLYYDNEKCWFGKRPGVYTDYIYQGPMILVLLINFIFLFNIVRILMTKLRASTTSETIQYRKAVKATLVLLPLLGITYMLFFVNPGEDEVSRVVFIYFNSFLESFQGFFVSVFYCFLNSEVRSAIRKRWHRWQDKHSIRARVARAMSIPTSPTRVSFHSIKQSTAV", "experiment": "In vitro autoradiography with radioligand", "assay_type": "binding, rhesus monkey", "details": "saturation, ROIs in monkey prefrontal/frontal cortex; n=3"}, "[2]": {"biological_target": "T2, CRF1 receptors (Rattus norvegicus, UniProt P35353)", "T2 sequence (P35353 24-415)": "T1 sequence (Q76LL8 24-415) with H6R, S9N, A13T, I16V, M153V, G163A, I209V, Y229H, H356R", "experiment": "In vitro autoradiography competition with [125I]Sauvagine, rat frontal cortex", "assay_type": "binding"}, "[3]": {"biological_target": "T1, CRF1 receptor", "assay_type": "binding, rhesus monkey"}, "[4]": {"biological_target": "CRF2 R (Rattus norvegicus, UniProt P47866)", "sequence (P47866 1-431 isoform P47866-2)": "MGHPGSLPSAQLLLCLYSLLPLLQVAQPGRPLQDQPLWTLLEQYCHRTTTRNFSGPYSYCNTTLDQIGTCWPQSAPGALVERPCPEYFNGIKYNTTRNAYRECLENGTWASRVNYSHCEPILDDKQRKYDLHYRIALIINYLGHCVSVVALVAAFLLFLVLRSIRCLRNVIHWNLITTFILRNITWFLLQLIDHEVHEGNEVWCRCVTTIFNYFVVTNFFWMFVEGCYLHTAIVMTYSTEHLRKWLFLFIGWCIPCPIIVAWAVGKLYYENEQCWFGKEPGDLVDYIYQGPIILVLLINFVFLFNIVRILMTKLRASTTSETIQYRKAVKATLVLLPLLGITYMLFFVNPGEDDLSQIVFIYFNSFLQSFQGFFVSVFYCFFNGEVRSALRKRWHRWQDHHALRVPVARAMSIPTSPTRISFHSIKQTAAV", "experiment": "In vitro autoradiography competition with [125I]Sauvagine, rat choroid plexus", "assay_type": "binding", "details": "read-out: Rat choroid plexus Ki; [125I] Sauvagine 0.1 nM; n=3"}, "[5]": {"tested_on": "P-gp", "details": "ref Kiesewetter et al., 2003; cited from earlier work"}, "[6]": {"details": "monkey frontal cortex, [125I]o-CRH"}}, "note": "Substitutions are numbered along the chain they refer to."}
{"compound": "CC[C@H](C)[C@H](NC(=O)[C@H](CC(=O)O)NC(=O)[C@H](CC(C)C)NC(=O)[C@H](CC(C)C)NC(=O)[C@H](CCCCN)NC(=O)[C@H](CCCNC(=N)N)NC(=O)[C@H](CC(N)=O)NC(=O)[C@H](CO)NC(=O)[C@H](Cc1c[nH]cn1)NC(=O)[C@H](C)NC(=O)[C@H](CCC(N)=O)NC(=O)[C@H](CCC(N)=O)NC(=O)[C@H](C)NC(=O)[C@H](CC(C)C)NC(=O)[C@H](CCC(N)=O)NC(=O)[C@H](CC(=O)O)NC(=O)[C@H](C)NC(=O)[C@H](CCCCN)NC(=O)[C@@H](NC(=O)[C@H](CCSC)NC(=O)[C@H](CCC(=O)O)NC(=O)[C@H](CC(C)C)NC(=O)[C@@H](NC(=O)[C@H](CCC(=O)O)NC(=O)[C@H](CCCNC(=N)N)NC(=O)[C@H](CC(C)C)NC(=O)[C@H](CC(C)C)NC(=O)[C@H](Cc1c[nH]cn1)NC(=O)[C@H](Cc1ccccc1)NC(=O)[C@@H](NC(=O)[C@H](CC(C)C)NC(=O)[C@H](CC(=O)O)NC(=O)[C@H](CC(C)C)NC(=O)[C@H](CO)NC(=O)[C@@H](NC(=O)[C@@H]1CCCN1C(=O)[C@@H]1CCCN1C(=O)[C@H](CCC(=O)O)NC(=O)[C@H](CCC(N)=O)NC(=O)[C@H](CO)NC(=O)[C@@H](N)Cc1ccc(O)c(I)c1)[C@@H](C)CC)[C@@H](C)O)C(C)C)[C@@H](C)O)C(=O)N[C@@H](C)C(N)=O", "note": "[[^125I]o-CRH]", "values": [{"measurement": "Kd", "setting": "[1]", "result": "0.68 ± 0.22", "unit": "nM"}]}
{"compound": "COCCN(CCOC)c1nc(C)nc2c(-c3c(OC)cc(Br)cc3OC)c(C)nn12", "note": "[4-Br-BMK-152, [8-(4-bromo-2,6-dimethoxyphenyl)-2,7-dimethylpyrazolo[1,5-α][1,3,5]triazin-4-yl]-N,N-bis-(2-methoxyethyl)amine]", "values": [{"measurement": "greater affinity compared to o-CRH", "setting": "[2]; rat frontal cortex, [125I]Sauvagine", "result": 5, "unit": "fold"}, {"measurement": "Ki", "setting": "[2]; read-out: Rat Frontal Cortex Ki, [125I] Sauvagine 0.1 nM, mean ± SD, n=3", "result": "0.15 ± 0.05", "unit": "nM"}, {"measurement": "greater affinity compared to 3-Br-BMK", "setting": "[3]; [6]", "result": 70, "unit": "fold"}, {"measurement": "greater affinity compared to o-CRH", "setting": "[3]; [6]", "result": 4, "unit": "fold"}, {"measurement": "Ki", "setting": "[3]; read-out: Rhesus Frontal Cortex Ki, [125I]-oCRH 0.125 nM, mean ± SD, n=3", "result": "0.35 ± 0.05", "unit": "nM"}, {"measurement": "Ki", "setting": "[4]", "result": "> 1000", "unit": "nM"}]}
{"compound": "CC(=O)O[C@H]1C(=O)[C@@]2(C)[C@H]([C@H](OC(=O)c3ccccc3)[C@]3(O)C[C@H](OC(=O)[C@H](O)[C@@H](NC(=O)c4ccccc4)c4ccccc4)C(C)=C1C3(C)C)[C@]1(OC(C)=O)CO[C@@H]1C[C@@H]2O", "note": "[paclitaxel]", "values": [{"measurement": "increase in P-gp KO mice compared to WT mice", "setting": "[5]", "result": 640, "unit": "%"}]}
